Patent publication US7071222B2, “Preparation containing a combination of 5-methylisoxazole-4-carboxylic acid-(4-trifluoromethyl)-anilide and N-(4-trifluoromethylphenyl)2-cyano-3-hydroxycrotonic acid amide” (Sanofi-Aventis Deuschland GmbH, priority 1996, dated 2006)

Columns and labels:
[1] = Oral administration of compound 1 or compound 2 on its own (background statement); format: in vivo; details: 5 mg or 10 mg per kg, each compound on its own
[2] = test system: Adjuvant-induced arthritis; assay: Adjuvant-induced arthritis, modification in accordance with Perper; format: in vivo, rats of a Lewis strain; details: Compound 1 10 mg/kg of rat, Compound 2 0 mg/kg; oral once daily day 1-12; determined day 18; vs control group
Procedure: Adjuvant-induced arthritis, modification in accordance with […] (Proc. Soc. exp. Biol. Med. 137, 506 (1971)) Male rats of a Lewis strain (Moellegard, Denmark) having a body weight of from 160 to 210 g are used as the experimental animals. On the 1st day, the animals are injected subcutaneously, into the tail root, with complete Freund's adjuvant containing a suspension of Mycobacterium butyricum in heavy paraffin oil (Difco; […] in paraffin oil; Merck). Compounds 1 and 2 are suspended in carboxymethyl cellulose (1% in water) and this suspension is administered orally. The compounds are administered once daily from the 1st to the 12th day of the experiment. The paw volume and the arthritis index are determined on the 18th day. The severity of the disorder is determined by measuring the volumes of both hind paws. The measurement is carried out by the water displacement method, using a 2060 plethysmometer (Rhema-Labortechnik, Hofheim, Germany). In addition, the arthritis index is determined on the 18th day after injection. [table] Animals forming a control group are only given the solvent (1% carboxymethyl cellulose in water). 6 animals are used for each dose and in the control group. A reduction in the increase in paw volume and a decrease in the arthritis index, as compared with the untreated control group, are used as the criteria for an effect having been achieved.

SMILES | effect of oral administration, compound on its own [1] | Decrease in arthritis index [2] | Decrease in paw volume [2]
C/C(O)=C(\C#N)C(=O)Nc1ccc(C(F)(F)F)cc1 [Compound 2, N-(4-trifluoromethylphenyl)-2-cyano-3-hydroxycrotonamide] | does not have any significant effect |  | 
Cc1oncc1C(=O)Nc1ccc(C(F)(F)F)cc1 [Compound 1, 5-methyl-4′-trifluoromethyl-4-isoxazolecarboxanilide] | does not have any significant effect | 58% | 74%
